Data published in PubChem BioAssay AID1963975 (Molecular Pharmacology Branch, DTP, NCI, 2024).

Test system: 624824-186-R-J2-PDC multicell spheroids, viability
Assay: Anticancer human tumor 624824-186-R-J2-PDC patient-derived colon adenocarcinoma cell line growth inhibition [PI3K]
Conditions: for IC50: curve of first compound; for viability, T/C: stronger effect = lower value
Source text: Combinatorial screen of targeted agents with the PI3K inhibitors inavolisib, alpelisib, duvelisib, and copanlisib in multi-cell type tumor spheroids
A high-throughput screen of multi-cell type tumor spheroids was designed to identify active combinations of targeted small molecules and PI3K pathway inhibitors. Complex spheroids include a stromal component modeled by human endothelial cells (HUVEC) and fibroblasts modeled by human mesenchymal stem cells (MSCs). The concentration ranges selected for each drug and investigational agent were based upon clinically achievable concentrations if the clinical Cmax of the agent was known.
Compounds. The drugs and investigational agents: inavolisib (NSC800729), alpelisib (NSC765974), duvelisib (NSC772469), copanlisib (NSC816437), ipatasertib (NSC767898), afuresertib (NSC778305), talazoparib (NSC767125), sapanisertib (NSC764658), selumetinib (NSC741078), tovorafenib (DAY101, NSC766906), vemurafenib (NSC761431), ravoxertinib (NSC781343), sotorasib (NSC818433), MRTX1133 (NSC 836407), abemaciclib (NSC 768073), palbociclib (NSC758247), venetoclax (NSC 766270), SY5609 (NSC837396), enzalutamide (NSC755605), and darolutamide (NSC825331), were obtained from the National Cancer Institute (NCI) Developmental Therapeutics Program Chemical Repository. The FDA-approved anticancer drug set is available from the NCI Developmental Therapeutics Program. […] The stock solutions were prepared in dimethyl sulfoxide (DMSO, Sigma-Aldrich, St. Louis, MO, cat. D2650) at 800-fold the tested concentration and stored at -70 degrees C prior to their use. All drugs and investigational agents were tested over a range starting from a high concentration at or near the clinical Cmax and decreasing in half-log increments. If the clinical Cmax for an agent had not been determined, the highest concentration tested was 10 microM.
Cell Culture. All cells were maintained in an incubator at 37 degrees C and 5% CO2 with 95% humidity. The PDC lines were cultured according to standard operating procedures established by the NCI PDMR (https://pdmr.cancer.gov/sops/default.htm). All PDCs were thawed and cultured in Matrigel-coated flasks prepared with a working solution of 1X Ham's F-12 nutrient mix, without supplementation (Invitrogen, Waltham, MA, cat. 11765054), 100 U/mL penicillin-streptomycin (Invitrogen, cat. 15140122), and 2.5% Matrigel (Corning Inc., Corning, NY, cat. 354248) for the first three passages. The 354836-022-R-J1-PDC, 475296-252-R-J1-PDC, and 997726-040-R-J2-PDC lines were cultured in 6A media, which includes advanced DMEM/F-12 (Thermo Fisher Scientific, cat. 12634028), 10 mM HEPES (Thermo Fisher Scientific, cat. 15630080), 1X GlutaMAX supplement (Thermo Fisher Scientific, cat. 35050061), 0.1 mg/mL primocin (InvivoGen, San Diego, CA, cat. ant-pm-2), 10% defined fetal bovine serum, heat inactivated (HyClone Laboratories Inc., Logan, UT, cat. SH30070.03HI), 50% L-WRN conditioned media (ATCC, cat. CRL-3276), 1.25 mM N-Acetyl-L-cysteine (Sigma-Aldrich, cat. A9165), 10 mM nicotinamide (Sigma-Aldrich, cat. N0636), 1X B-27 supplement (Thermo Fisher Scientific, cat. 17504044), 1X N-2 supplement (Thermo Fisher Scientific, cat. 17502048), and 10 microM Y-27632 dihydrochloride (Tocris Bioscience, Bristol, United Kingdom, cat. 1254). The 624824-186-R-J2-PDC line was cultured in 6C/Colon 1B media, which includes all 6A media components plus 50 ng/mL human EGF recombinant protein (Thermo Fisher Scientific, cat. PHG0311). […]

[1] = second compound 0.00316 µM, first compound 0.0316 µM
[2] = second compound 0.00316 µM, first compound 0.1 µM
[3] = second compound 0.00316 µM, first compound 0.316 µM
[4] = second compound 0.00316 µM, first compound 1 µM
[5] = second compound 0.00316 µM, first compound 3.16 µM
[6] = second compound 0.00316 µM, first compound 10 µM
[7] = second compound 0.01 µM, first compound 0.0316 µM
[8] = second compound 0.01 µM, first compound 0.1 µM
[9] = second compound 0.01 µM, first compound 0.316 µM
[10] = second compound 0.01 µM, first compound 1 µM
[11] = second compound 0.01 µM, first compound 3.16 µM
[12] = second compound 0.01 µM, first compound 10 µM
[13] = second compound 0.0316 µM, first compound 0.0316 µM
[14] = second compound 0.0316 µM, first compound 0.1 µM
[15] = second compound 0.0316 µM, first compound 0.316 µM
[16] = second compound 0.0316 µM, first compound 1 µM
[17] = second compound 0.0316 µM, first compound 3.16 µM
[18] = second compound 0.0316 µM, first compound 10 µM
[19] = second compound 0.1 µM, first compound 0.0316 µM
[20] = second compound 0.1 µM, first compound 0.1 µM
[21] = second compound 0.1 µM, first compound 0.316 µM
[22] = second compound 0.1 µM, first compound 1 µM
[23] = second compound 0.1 µM, first compound 3.16 µM
[24] = second compound 0.1 µM, first compound 10 µM
[25] = second compound 0.316 µM, first compound 0.0316 µM
[26] = second compound 0.316 µM, first compound 0.1 µM
[27] = second compound 0.316 µM, first compound 0.316 µM
[28] = second compound 0.316 µM, first compound 1 µM
[29] = second compound 0.316 µM, first compound 3.16 µM
[30] = second compound 0.316 µM, first compound 10 µM
[31] = second compound 1 µM, first compound 0.0316 µM
[32] = second compound 1 µM, first compound 0.1 µM
[33] = second compound 1 µM, first compound 0.316 µM
[34] = second compound 1 µM, first compound 1 µM
[35] = second compound 1 µM, first compound 3.16 µM
[36] = second compound 1 µM, first compound 10 µM
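Note: spheroids exposed to agents for 7 days before viability read.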
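Throughout, for viability, T/C: 100% = DMSO vehicle treated spheroids.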

C#Cc1c(F)ccc2cc(O)cc(-c3ncc4c(N5CC6CCC(C5)N6)nc(OCC56CCCN5CC(F)C6)nc4c3F)c12 (stereo not drawn) + CC(Nc1ccc2c(c1)OCCn1cc(N3C(=O)OCC3C(F)F)nc1-2)C(N)=O
IC50 (second compound 0.00316 µM): > 10 µM
IC50 (second compound 0.01 µM): > 10 µM
IC50 (second compound 0.0316 µM): > 10 µM
IC50 (second compound 0.1 µM): > 10 µM
IC50 (second compound 0.316 µM): > 10 µM
IC50 (second compound 1 µM): > 10 µM
viability, T/C [1]: 90%
viability, T/C [2]: 98.3%
viability, T/C [3]: 123%
viability, T/C [4]: 87.4%
viability, T/C [5]: 105%
viability, T/C [6]: 106%
viability, T/C [7]: 116%
viability, T/C [8]: 103%
viability, T/C [9]: 82.6%
viability, T/C [10]: 89%
viability, T/C [11]: 94.9%
viability, T/C [12]: 86.5%
viability, T/C [13]: 91.6%
viability, T/C [14]: 116%
viability, T/C [15]: 79.2%
viability, T/C [16]: 102%
viability, T/C [17]: 106%
viability, T/C [18]: 82.2%
viability, T/C [19]: 121%
viability, T/C [20]: 88.1%
viability, T/C [21]: 80.6%
viability, T/C [22]: 82.5%
viability, T/C [23]: 93.3%
viability, T/C [24]: 100%
viability, T/C [25]: 101%
viability, T/C [26]: 76.2%
viability, T/C [27]: 79%
viability, T/C [28]: 85.1%
viability, T/C [29]: 86.8%
viability, T/C [30]: 81.8%
viability, T/C [31]: 78.1%
viability, T/C [32]: 80.3%
viability, T/C [33]: 82%
viability, T/C [34]: 94.4%
viability, T/C [35]: 93.2%
viability, T/C [36]: 91.1%

C=CC(=O)N1CCN(c2nc(=O)n(-c3c(C)ccnc3C(C)C)c3nc(-c4c(O)cccc4F)c(F)cc23)C(C)C1 (stereo not drawn) + CC(Nc1ccc2c(c1)OCCn1cc(N3C(=O)OCC3C(F)F)nc1-2)C(N)=O
IC50 (second compound 0.00316 µM): > 10 µM
IC50 (second compound 0.01 µM): > 10 µM
IC50 (second compound 0.0316 µM): > 10 µM
IC50 (second compound 0.1 µM): > 10 µM
IC50 (second compound 0.316 µM): > 10 µM
IC50 (second compound 1 µM): > 10 µM
viability, T/C [1]: 103%
viability, T/C [2]: 88.3%
viability, T/C [3]: 94.2%
viability, T/C [4]: 97.8%
viability, T/C [5]: 117%
viability, T/C [6]: 110%
viability, T/C [7]: 92.6%
viability, T/C [8]: 88%
viability, T/C [9]: 88.3%
viability, T/C [10]: 87.7%
viability, T/C [11]: 80.3%
viability, T/C [12]: 96.9%
viability, T/C [13]: 109%
viability, T/C [14]: 92.3%
viability, T/C [15]: 105%
viability, T/C [16]: 87.3%
viability, T/C [17]: 101%
viability, T/C [18]: 85.4%
viability, T/C [19]: 112%
viability, T/C [20]: 82.1%
viability, T/C [21]: 106%
viability, T/C [22]: 104%
viability, T/C [23]: 81.2%
viability, T/C [24]: 103%
viability, T/C [25]: 83.3%
viability, T/C [26]: 104%
viability, T/C [27]: 107%
viability, T/C [28]: 84.1%
viability, T/C [29]: 88.7%
viability, T/C [30]: 79.2%
viability, T/C [31]: 90.7%
viability, T/C [32]: 90%
viability, T/C [33]: 81.1%
viability, T/C [34]: 92.4%
viability, T/C [35]: 85.6%
viability, T/C [36]: 78%

CC(Cn1ccc(-c2ccc(C#N)c(Cl)c2)n1)NC(=O)c1cc(C(C)O)[nH]n1 (stereo not drawn) + CC(Nc1ccc2c(c1)OCCn1cc(N3C(=O)OCC3C(F)F)nc1-2)C(N)=O
IC50 (second compound 0.00316 µM): > 10 µM
IC50 (second compound 0.01 µM): > 10 µM
IC50 (second compound 0.0316 µM): > 10 µM
IC50 (second compound 0.1 µM): > 10 µM
IC50 (second compound 0.316 µM): > 10 µM
IC50 (second compound 1 µM): > 10 µM
viability, T/C [1]: 86.5%
viability, T/C [2]: 102%
viability, T/C [3]: 108%
viability, T/C [4]: 103%
viability, T/C [5]: 107%
viability, T/C [6]: 127%
viability, T/C [7]: 124%
viability, T/C [8]: 88.3%
viability, T/C [9]: 88.5%
viability, T/C [10]: 97.7%
viability, T/C [11]: 99.5%
viability, T/C [12]: 116%
viability, T/C [13]: 77.1%
viability, T/C [14]: 79.6%
viability, T/C [15]: 83.1%
viability, T/C [16]: 93.9%
viability, T/C [17]: 108%
viability, T/C [18]: 104%
viability, T/C [19]: 81.5%
viability, T/C [20]: 77.9%
viability, T/C [21]: 76.9%
viability, T/C [22]: 82.1%
viability, T/C [23]: 93.2%
viability, T/C [24]: 103%
viability, T/C [25]: 76.7%
viability, T/C [26]: 91.1%
viability, T/C [27]: 103%
viability, T/C [28]: 69.4%
viability, T/C [29]: 83.4%
viability, T/C [30]: 95.9%
viability, T/C [31]: 87.9%
viability, T/C [32]: 76%
viability, T/C [33]: 88.2%
viability, T/C [34]: 94%
viability, T/C [35]: 76.4%
viability, T/C [36]: 95.9%

Cn1nccc1Nc1nccc(-c2ccn(C(CO)c3ccc(Cl)c(F)c3)c(=O)c2)n1 (stereo not drawn) + CC(Nc1ccc2c(c1)OCCn1cc(N3C(=O)OCC3C(F)F)nc1-2)C(N)=O
IC50 (second compound 0.00316 µM): > 10 µM
IC50 (second compound 0.01 µM): > 10 µM
IC50 (second compound 0.0316 µM): > 10 µM
IC50 (second compound 0.1 µM): > 10 µM
IC50 (second compound 0.316 µM): > 10 µM
IC50 (second compound 1 µM): 1.33 µM
viability, T/C [1]: 79.4%
viability, T/C [2]: 78.9%
viability, T/C [3]: 80.1%
viability, T/C [4]: 84.7%
viability, T/C [5]: 104%
viability, T/C [6]: 99.5%
viability, T/C [7]: 80.5%
viability, T/C [8]: 73.6%
viability, T/C [9]: 77.6%
viability, T/C [10]: 90.5%
viability, T/C [11]: 102%
viability, T/C [12]: 116%
viability, T/C [13]: 79%
viability, T/C [14]: 71.8%
viability, T/C [15]: 72%
viability, T/C [16]: 91.6%
viability, T/C [17]: 86.6%
viability, T/C [18]: 93.2%
viability, T/C [19]: 87.5%
viability, T/C [20]: 61.4%
viability, T/C [21]: 68.8%
viability, T/C [22]: 95.6%
viability, T/C [23]: 84.9%
viability, T/C [24]: 59%
viability, T/C [25]: 63%
viability, T/C [26]: 63.5%
viability, T/C [27]: 68.6%
viability, T/C [28]: 73.7%
viability, T/C [29]: 63.9%
viability, T/C [30]: 40.4%
viability, T/C [31]: 73.1%
viability, T/C [32]: 86.4%
viability, T/C [33]: 61%
viability, T/C [34]: 52.9%
viability, T/C [35]: 42.5%
viability, T/C [36]: 29%
